This is an account of results in article PMC4581723, “Evaluation of In Vitro Activity of the Class I PI3K Inhibitor Buparlisib (BKM120) in Pediatric Bone and Soft Tissue Sarcomas” (PLoS ONE, 2015).

For one experiment, the system named is TC-32. Nature of the experiment: Cell viability assay (MTT), 72 h. Format: cell-based. The conditions noted are these: Homo sapiens, TC-32 (ES), PIK3CA WT, read-out: Buparlisib cell viability IC50.
The next experiment has as its system A4573. The experiment in a line: Cell viability assay (MTT), 72 h. It counts as cell-based. The conditions noted are these: A4573 (ES), PIK3CA WT, read-out: Buparlisib cell viability IC50.
The test system of the next experiment is A673. The experiment in a line: Cell viability assay (MTT), 72 h. It counts as cell-based. The conditions noted are these: Homo sapiens, A673 (ES), PIK3CA WT, read-out: Buparlisib cell viability IC50.
A further experiment has as its system 5838. The experiment in a line: Cell viability assay (MTT), 72 h. It counts as cell-based. The conditions noted are these: 5838 (ES), PIK3CA WT, read-out: Buparlisib cell viability IC50.
For another experiment, the system named is RDES. Nature of the experiment: Cell viability assay (MTT), 72 h. It counts as cell-based. The conditions noted are these: RD-ES, PIK3CA WT, read-out: Buparlisib cell viability IC50.
A further experiment relates to SK-N-MC. Nature of the experiment: Cell viability assay (MTT), 72 h. It counts as cell-based. The conditions noted are these: Homo sapiens, SK-N-MC (ES), PIK3CA WT, read-out: Buparlisib cell viability IC50.
The next experiment has as its system KHOS 240S. The experiment in a line: Cell viability assay (MTT), 72 h. It counts as cell-based. The conditions noted are these: KHOS 240S (OS), read-out: Buparlisib cell viability IC50.
The next experiment relates to HOS. The experiment in a line: Cell viability assay (MTT), 72 h. It counts as cell-based. The conditions noted are these: Homo sapiens, HOS (OS), PIK3CA WT, read-out: Buparlisib cell viability IC50.
Another experiment has as its system KHOS 312H. The experiment in a line: Cell viability assay (MTT), 72 h. It counts as cell-based. The conditions noted are these: KHOS 312H (OS), read-out: Buparlisib cell viability IC50.
A further experiment has as its system HT161. The experiment in a line: Cell viability assay (MTT), 72 h. Format: cell-based. The conditions noted are these: HT161 (OS), PIK3CA WT, read-out: Buparlisib cell viability IC50.
Another experiment has as its system RD. The experiment in a line: Cell viability assay (MTT), 72 h. Format: cell-based. The conditions noted are these: Homo sapiens, RD (RMS), PIK3CA WT, read-out: Buparlisib cell viability IC50.
A further experiment deals with A204. The experiment in a line: Cell viability assay (MTT), 72 h. Format: cell-based. The conditions noted are these: Homo sapiens, A204 (RMS), PIK3CA WT, read-out: Buparlisib cell viability IC50.
The test system of a further experiment is SJCRH30. The experiment in a line: Cell viability assay (MTT), 72 h. Format: cell-based. The conditions noted are these: SJCRH30 (RMS), PIK3CA WT, read-out: Buparlisib cell viability IC50.
Experiment [1] deals with pediatric sarcoma cell lines. Nature of the experiment: Cell viability assay (MTT), panel of sarcoma cell lines. It counts as cell-based.
The next experiment deals with MCF-7. The experiment in a line: Cell viability assay (MTT), 72 h. The conditions noted are these: read-out: Buparlisib cell viability IC50, MCF-7 (breast), PIK3CA E545K.

Like-named read-outs stand apart in the source and are kept apart here.

Description for MCF-7: Cells were seeded in 96-well plates and drugs were added after overnight incubation, with each treatment condition performed in triplicate. After drug treatment, 10 μl of 5 mg/ml MTT (3-(4,5-dimethylthiazolyl-2)-2, 5-diphenyltetrazolium bromide) in PBS was added to cells and allowed to incubate for 2–4 hours at 37°C. […] Plate absorbance was read at 595 nm using a Bio-rad microplate reader. Percent viability was calculated by normalizing absorbance values to those from cells grown in media without drug after background subtraction. IC50 values were calculated by fitting dose-response curves to a four-parameter, variable slope sigmoid dose-response model (Prism Software, GraphPad).

Turning to `Nc1cc(C(F)(F)F)c(-c2cc(N3CCOCC3)nc(N3CCOCC3)n2)cn1` [Buparlisib], the IC50 in the experiment with TC-32 came to 972 nM; with A4573, 1560 nM; with A673 it was 1780 nM; in the experiment with 5838, 1610 nM; in the experiment with RDES, 1120 nM; with SK-N-MC, 899 nM. The IC50 with KHOS 240S came out at 1170 nM; with HOS it was 1840 nM; in the experiment on KHOS 312H it was 1590 nM; in the experiment with HT161, 1080 nM; with RD it was 1070 nM; in the experiment on A204, 526 nM. For the same molecule, the IC50 with SJCRH30 is 1000 nM; in [1] (ES and RMS cell lines in general, 72 h, read-out: cell viability IC50) it was about 1000 nM; in experiment [1] (median over sarcoma cell lines, 72 h, read-out: median IC50 value, cellular proliferation), 1100 nM; in the experiment with MCF-7 (Homo sapiens, MCF7, 72 h), 173 nM; in the experiment on MCF-7, 173 nM. Besides, in [1] (buparlisib concentration in combination therapy), the “concentrations at which synergistic effects were observed” value is “under 1 μM”. Further, the “combination effect on cell viability” value is given as “Synergy” in experiment [1] (combined with rapamycin, four cell lines (TC-32, A673, RD, A4573), 72 h); “Synergistic effects were only observed in cell lines that contained MAPK pathway mutations” in [1] (combined with trametinib, cell lines with (A673, RD) and without (TC-32, A4573) MAPK pathway mutations, 72 h); “Synergy” in [1] (in combination with NVP-AEW541, ES and RMS cell lines, 72 h); “additive effects” in experiment [1] (in combination with NVP-AEW541, OS cell lines (MNNG), 72 h); “additive” in experiment [1] (sequential treatment doxorubicin (4 h) then buparlisib (72 h), ratio 20:3, ES and OS cell lines).
